What was measured:
rape = assay: Test B pre/postemergence rape; type: in vivo, Brassica napus
How it was run: (§1)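 Herbicidal effect was estimated by eye on a ten-point control scale after plants spent twelve to sixteen days in a greenhouse following soil or foliar treatment. Foliar sprays targeted plants at one to four leaves; all doses were formulated in a non-phytotoxic solvent with surfactant.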

giant foxtail = assay: Test B pre/postemergence giant foxtail; type: in vivo, Setaria faberii
How it was run: as §1

purple nutsedge = assay: Test B pre/postemergence purple nutsedge; type: in vivo, Cyperus rotundus; settings: for Nutsedge plant response rating: Rate 125 g/ha, scale 0 to 10, 0 is no effect, 10 is complete control
How it was run: as §1

surinam grass = assay: Test B pre/postemergence surinam grass; type: in vivo, Brachiaria decumbens; settings: for Plant response rating, B. signalgrass: scale of 0 to 10 where 0 is no effect and 10 is complete control
How it was run: as §1

corn = assay: Test B pre/postemergence corn; type: in vivo, Zea mays
How it was run: as §1

cocklebur = assay: Test B pre/postemergence cocklebur; type: in vivo, Xanthium strumarium
How it was run: as §1

crabgrass = assay: Test B pre/postemergence crabgrass; type: in vivo, Digitaria sanguinalis
How it was run: as §1

morningglory = assay: Test B pre/postemergence morningglory; type: in vivo, Ipomoea hederacea
How it was run: as §1

pigweed = assay: Test B pre/postemergence pigweed; type: in vivo, Amaranthus retroflexus; settings: for Plant response rating, Redroot pigweed: Postemergence
How it was run: as §1

wild oat = assay: Test B pre/postemergence wild oat; type: in vivo, Avena fatua; settings: for Plant response rating, Wild oats: Postemergence
How it was run: as §1

blackgrass = assay: Test B pre/postemergence blackgrass; type: in vivo, Alopecurus myosuroides
How it was run: as §1

bedstraw = assay: Test B pre/postemergence bedstraw; type: in vivo, Galium aparine; settings: Preemergence
How it was run: as §1

sugar beet = assay: Test B pre/postemergence sugar beet; type: in vivo, Beta vulgaris
How it was run: as §1

soybean = assay: Test B pre/postemergence soybean; type: in vivo, Glycine max; settings: for Plant response rating, Soybean: Postemergence
How it was run: as §1

wheat = assay: Test B pre/postemergence wheat; type: in vivo, Triticum aestivum; settings: for Plant response rating, Wheat: Postemergence
How it was run: as §1

velvetleaf = assay: Test B pre/postemergence velvetleaf; type: in vivo, Abutilon theophrasti; settings: for Plant response rating, Velvetleaf: Postemergence
How it was run: as §1

[1] = Postemergence, Rate 62 g/ha, scale of 0 to 10, 0 is no effect, 10 is complete control
[2] = Postemergence, Rate 125 g/ha, scale 0 to 10, 0 is no effect, 10 is complete control
[3] = Postemergence, Rate 500 g/ha, scale of 0 to 10 where 0 is no effect and 10 is complete control
[4] = Preemergence, Rate 62 g/ha, scale 0 to 10 (0 no effect, 10 complete control)
[5] = Preemergence, Rate 125 g/ha, scale 0 to 10, 0 is no effect, 10 is complete control
[6] = Preemergence, Rate 500 g/ha, scale of 0 to 10 where 0 is no effect and 10 is complete control
[7] = Rate 250 g/ha, Postemergence, scale of 0 to 10 where 0 is no effect and 10 is complete control
[8] = Rate 500 g/ha, scale of 0 to 10 where 0 is no effect and 10 is complete control
[9] = Rate 250 g/ha, scale of 0 to 10 where 0 is no effect and 10 is complete control

Compound: C=CCCCn1c(=O)on(C(=O)N(c2ccccc2)C(C)C)c1=O [Compound 575]
- Rape plant response rating (rape; [1]): 0
- Rape plant response rating (rape; [2]): 0
- Plant response rating, Rape (rape; [3]): 3
- Rape plant response rating (rape; [4]): 0
- Rape plant response rating (rape; [5]): 2
- Rape plant response rating (0 to 10 scale) (rape; Preemergence, Rate 250 g/ha): 2
- Rape plant response rating (rape; [6]): 2
- Plant response rating, Rape (rape; [7]): 3
- Giant foxtail plant response rating (giant foxtail; [2]): 2
- Giant foxtail plant response rating (giant foxtail; [4]): 8
- Giant foxtail plant response rating (giant foxtail; [5]): 10
- Giant foxtail plant response rating (0 to 10 scale) (giant foxtail; Preemergence, Rate 250 g/ha): 10
- Giant foxtail plant response rating (giant foxtail; [6]): 10
- Plant response rating, Giant foxtail (giant foxtail; [7]): 8
- Nutsedge plant response rating (purple nutsedge; Postemergence): 0
- Nutsedge plant response rating (purple nutsedge; Preemergence): 0
- Nutsedge plant response rating (0 to 10 scale) (purple nutsedge; Preemergence, Rate 250 g/ha): 0
- Plant response rating, Nutsedge (purple nutsedge; [7]): 0
- B. signalgrass plant response rating (surinam grass; [1]): 0
- B. signalgrass plant response rating (surinam grass; [2]): 0
- Plant response rating, B. signalgrass (surinam grass; Postemergence, Rate 500 g/ha): 3
- B. signalgrass plant response rating (surinam grass; [4]): 6
- B. signalgrass plant response rating (surinam grass; [5]): 9
- B. signalgrass plant response rating (0 to 10 scale, 0 is no effect, 10 is complete control) (surinam grass; Preemergence, Rate 250 g/ha): 10
- Plant response rating, B. signalgrass (surinam grass; Rate 250 g/ha, Postemergence): 0
- Corn plant response rating (corn; [1]): 0
- Corn plant response rating (corn; [2]): 0
- Plant response rating, Corn (corn; [3]): 0
- Corn plant response rating (corn; [4]): 0
- Corn plant response rating (corn; [5]): 0
- Corn plant response rating (0 to 10 scale) (corn; Preemergence, Rate 250 g/ha): 0
- Corn plant response rating (corn; [6]): 3
- Plant response rating, Corn (corn; [7]): 0
- Cocklebur plant response rating (cocklebur; [1]): 0
- Cocklebur plant response rating (cocklebur; [2]): 0
- Plant response rating, Cocklebur (cocklebur; [3]): 2
- Cocklebur plant response rating (cocklebur; [4]): 0
- Cocklebur plant response rating (cocklebur; [5]): 0
- Cocklebur plant response rating (0 to 10 scale) (cocklebur; Preemergence, Rate 250 g/ha): 0
- Cocklebur plant response rating (cocklebur; [6]): 0
- Plant response rating, Cocklebur (cocklebur; [7]): 0
- Crabgrass plant response rating (crabgrass; [1]): 0
- Crabgrass plant response rating (crabgrass; [2]): 2
- Plant response rating, Crabgrass (crabgrass; [3]): 9
- Crabgrass plant response rating (crabgrass; [4]): 8
- Crabgrass plant response rating (crabgrass; [5]): 9
- Crabgrass plant response rating (0 to 10 scale) (crabgrass; Preemergence, Rate 250 g/ha): 9
- Crabgrass plant response rating (crabgrass; [6]): 9
- Plant response rating, Crabgrass (crabgrass; [7]): 9
- Morningglory plant response rating (morningglory; [1]): 4
- Morningglory plant response rating (morningglory; [2]): 6
- Plant response rating, Morningglory (morningglory; [3]): 10
- Morningglory plant response rating (morningglory; [4]): 0
- Morningglory plant response rating (morningglory; [5]): 0
- Morningglory plant response rating (0 to 10 scale) (morningglory; Preemergence, Rate 250 g/ha): 0
- Morningglory plant response rating (morningglory; [6]): 2
- Plant response rating, Morningglory (morningglory; [7]): 9
- Plant response rating, Redroot pigweed (pigweed; [8]): 7
- Redroot pigweed plant response rating (pigweed; [4]): 9
- Redroot pigweed plant response rating (pigweed; [5]): 9
- Redroot pigweed plant response rating (0 to 10 scale) (pigweed; Preemergence, Rate 250 g/ha): 10
- Redroot pigweed plant response rating (pigweed; [6]): 10
- Plant response rating, Redroot pigweed (pigweed; [9]): 4
- Plant response rating, Wild oats (wild oat; [8]): 0
- Wild oats plant response rating (wild oat; [4]): 0
- Wild oats plant response rating (wild oat; [5]): 0
- Wild oats plant response rating (0 to 10 scale) (wild oat; Preemergence, Rate 250 g/ha): 2
- Wild oats plant response rating (wild oat; [6]): 2
- Plant response rating, Wild oats (wild oat; [9]): 0
- Blackgrass plant response rating (blackgrass; [1]): 0
- Blackgrass plant response rating (blackgrass; [2]): 0
- Plant response rating, Blackgrass (blackgrass; [3]): 3
- Blackgrass plant response rating (blackgrass; [4]): 2
- Blackgrass plant response rating (blackgrass; [5]): 6
- Blackgrass plant response rating (0 to 10 scale) (blackgrass; Preemergence, Rate 250 g/ha): 7
- Blackgrass plant response rating (blackgrass; [6]): 2
- Plant response rating, Blackgrass (blackgrass; [7]): 0
- Bedstraw plant response rating (bedstraw; Rate 62 g/ha, scale 0 to 10 (0 no effect, 10 complete control)): 0
- Bedstraw plant response rating (bedstraw; Rate 125 g/ha, scale 0 to 10, 0 is no effect, 10 is complete control): 0
- Bedstraw plant response rating (0 to 10 scale) (bedstraw; Rate 250 g/ha): 0
- Bedstraw plant response rating (bedstraw; [8]): 0
- Plant response rating, Sugarbeets (sugar beet; [3]): 2
- Sugarbeets plant response rating (sugar beet; [4]): 0
- Sugarbeets plant response rating (sugar beet; [5]): 0
- Sugarbeets plant response rating (0 to 10 scale) (sugar beet; Preemergence, Rate 250 g/ha): 0
- Sugarbeets plant response rating (sugar beet; [6]): 2
- Plant response rating, Soybean (soybean; [8]): 6
- Soybean plant response rating (soybean; [4]): 0
- Soybean plant response rating (soybean; [5]): 0
- Soybean plant response rating (0 to 10 scale) (soybean; Preemergence, Rate 250 g/ha): 0
- Soybean plant response rating (soybean; [6]): 0
- Plant response rating, Soybean (soybean; [9]): 5
- Plant response rating, Wheat (wheat; [8]): 2
- Wheat plant response rating (wheat; [4]): 0
- Wheat plant response rating (wheat; [5]): 0
- Wheat plant response rating (0 to 10 scale) (wheat; Preemergence, Rate 250 g/ha): 0
- Wheat plant response rating (wheat; [6]): 0
- Plant response rating, Wheat (wheat; [9]): 0
- Plant response rating, Velvetleaf (velvetleaf; [8]): 3
- Velvetleaf plant response rating (velvetleaf; [4]): 0
- Velvetleaf plant response rating (velvetleaf; [5]): 0
- Velvetleaf plant response rating (0 to 10 scale) (velvetleaf; Preemergence, Rate 250 g/ha): 0
- Velvetleaf plant response rating (velvetleaf; [6]): 2
- Plant response rating, Velvetleaf (velvetleaf; [9]): 2
